Experimental data published in patent US6608004B2, “Substituted 2-aryl-1,2,4-triazine-3,5-di(thi)ones” (priority 1999, dated 2003).

What was measured:
[1] = logP determination by HPLC, reversed-phase column (C 18), EEC Directive 79/831 Annex V.A8; conditions: pH 2
Source text: (a) Mobile phases for the determination in the acidic range: 0.1% aqueous phosphoric acid, acetonitrile; linear gradient from 10% acetonitrile to 90% acetonitrile—the corresponding measurement results are labelled in Table 1 with ^a).
(b) Mobile phases for the determination in the neutral range: 0.01 molar aqueous phosphate buffer solution, acetonitrile; linear gradient from 10% acetonitrile to 90% acetonitrile—the corresponding measurement results are labelled in Table 1 with ^b).

[2] = test system: crop plants, such as, for example, barley and wheat; assay: Post-Emergence Test (Example B), tolerance by crop plants; conditions: post-emergence; barley and wheat; rated after three weeks
Source text: (§1) Solvent: 5 parts by weight of acetone
(§2) Emulsifier: 1 part by weight of alkylaryl polyglycol ether
(§3) After three weeks, the degree of damage to the plants is rated in % damage in comparison to the development of the untreated control.

[3] = test system: crop plants, such as, for example, barley, wheat, rapeseed, soya and sugar beet; assay: Pre-Emergence Test (Example A), tolerance by crop plants; type: in vivo; conditions: pre-emergence; barley, wheat, rapeseed, soya and sugar beet; rated after three weeks
Source text: as §1, §2
(§4) Seeds of the test plants are sown in normal soil.

weeds [4] = assay: Pre-Emergence Test (Example A), activity against weeds; type: in vivo; conditions: soil sprayed about 24 hours after sowing, rated after three weeks
Source text: as §1, §2, §4
0%=no effect (like untreated control)

weeds [5] = assay: Post-Emergence Test (Example B), activity against weeds; type: in vivo; conditions: test plants of a height of 5-15 cm sprayed, rated after three weeks
Source text: as §1, §2, §3

[6] = reversed-phase HPLC column (C 18)

| melting point [°C] | chromatographic logP [1, 6] | SMILES | chromatographic logP [1] | tolerance by crop plants [2] | tolerance by crop plants [3] | activity against weeds (degree of damage) (weeds [4]) | activity against weeds (degree of damage) (weeds [5]) |
| --- | --- | --- | --- | --- | --- | --- | --- |
| 118 | 1.97 | C=CC(=O)N(c1cc(-n2ncc(=O)n(C)c2=O)c(F)cc1C#N)S(=O)(=O)CC [Example 2, 2-[5-(N-acryloyl-N-ethylsulphonylamino)-4-cyano-2-fluoro-phenyl]-4-methyl-1,2,4-triazine-3,5(2H,4H)-dione] |  | essentially being tolerated well | essentially being tolerated well | very strong activity | very strong activity |
| 233 | 1.66 | CCS(=O)(=O)Nc1cc(-n2ncc(=O)n(C)c2=O)c(F)cc1C#N [Example (II-1), 2-(2-fluoro-4-cyano-5-ethylsulphonylamino-phenyl)-4-methyl-1,2,4-triazine-3,5(2H,4H)-dione] |  |  |  |  |  |

| SMILES | melting point [°C] | chromatographic logP [1, 6] | chromatographic logP [1] | tolerance by crop plants [2] | tolerance by crop plants [3] | activity against weeds (degree of damage) (weeds [4]) | activity against weeds (degree of damage) (weeds [5]) |
| --- | --- | --- | --- | --- | --- | --- | --- |
| CCS(=O)(=O)N(C(=O)Oc1ccccc1)c1cc(-n2ncc(=O)n(C)c2=O)c(F)cc1C#N [Example 1, 2-[5-(N-phenoxy-carbonyl-N-ethylsulphonylamino)-4-cyano-2-fluoro-phenyl]-4-methyl-1,2,4-triazine-3,5(2H,4H)-dione] | 181 |  | 2.76 |  |  |  |  |
